Experimental data published in patent US20070154457A1, “Use of eIF-5A to kill multiple myeloma cells” (Senesco Technologies, Inc., priority 2005, published 2007).
Starred links: 1 amine or outer side, 2 acyl side, 3 side chain; linkers in the order of their positions; H or OH if unused. Positions of bridges follow the written chain, without caps; N, C: chain ends. Non-standard residues stand in square brackets, D forms with d. Residues, ends and D or L forms follow the SMILES beside them. Chains are numbered I, II in the order given. Actinocin(9to1) = Cc1c2oc3c(C)ccc(C(=O)[*:1])c3nc-2c(C(=O)[*:2])c(N)c1=O; NMeV = CN[C@H](C(=O)O)C(C)C; Sar = CNCC(=O)O

How the values were obtained:
HT-29 cells = assay: XTT and BrdU cell proliferation assays of HT-29 cells (siRNA, GC7); assay type: cell-based, human; conditions: 50 μM for 72 hours, BrdU incorporation
Protocol: HT-29 cells were transfected with siRNA on 96-well plates using Lipofectamine 2000 (Invitrogen). Metabolic activity of proliferating cells was measured with the XTT Cell Proliferation Kit (Roche Applied Science). The BrdU Cell Proliferation Kit (Roche Applied Science) was used to measure DNA synthesis following the manufacturer's protocol. For XTT assays performed following adenovirus infection, 5000 cells were plated per well in a 96-well plate. The next day cells were infected with Ad-lacZ, Ad-eIF5A1 and Ad-eIF5A1(K50A) (Ad-eIF5A1M) respectively with untreated cells as negative control and Actinomycin D treated cell as positive control. XTT substrate was added and A475 nm was measured with A690 nm as the reference.

eIF5A1 [1] = assay: 2-D gel electrophoresis and Western blot of eIF5A1 forms in HT-29 cells; assay type: cell-based, human; conditions: HT-29, beginning 1 hour after treatment, disappearing 24 hours after treatment
Protocol: For 2-D gel electrophoresis, HT-29 cell lysate was harvested in cold lysis buffer (7M Urea, 2M Thiourea, 30 mM Tris, 4% CHAPS, protease inhibitor cocktail), sonicated and cleared of debris by centrifugation. Protein concentration was determined using the Bradford method. The first dimensional isolelectric focusing was performed with the Ettan IPGphor Isoelectric Focusing System (Amersham Biosciences) according to the manufacture's instruction. Immobiline DryStrips (7 cm pH 4-7; Amersham Biosciences) were rehydrated in rehydration buffer (8M Urea, 2% CHAPS, 0.2% DTT, 0.5% pH 4-7 IPG buffer, 0.002% Bromophenol blue) along with cell lysate at room temperature for 12 hours. The isoelectric focusing was performed at 500 V for 30 min, 1000 V for 30 min, and 5000 V for 1 hour and 40 min. The protein on the IPG strip gel was then separated by SDS-PAGE and transferred to a PVDF membrane (Amersham Biosciences). Western blotting was performed using eIF5A antibody (BD Biosciences).

eIF5A1 [2] = assay: Western blot of eIF5A1 expression in normal colon fibroblasts; assay type: cell-based; conditions: 0.5 μg/ml, 24 hours
Protocol: Protein for Western blotting was isolated using boiling lysis buffer [2% SDS, 50 mM Tris-HCl (pH 7.4)]. Protein concentrations were determined using the Bicinchoninic Acid Kit (Sigma). For Western blotting, 5 μg of total protein was fractionated on a 12% SDS-polyacrylamide gel and transferred to a polyvinylidene difluoride membrane. The primary antibodies used were anti-eIF5A (BD Transduction Laboratories; mouse IgG) and anti-β-actin (Oncogene; mouse IgM), both at a dilution of 1:20,000 in 5% milk. The secondary antibodies were anti-mouse IgG conjugated to horseradish peroxidase (HRP; Sigma) and anti-mouse IgM-HRP (Oncogene). Antibody-protein complexes were visualized using the enhanced chemiluminescence method (ECL, Amersham Biosciences). Following detection of eIF5A, the blots were stripped according to the protocol provided by the ECL Plus Western blotting detection system and reprobed with anti-β-actin antibody to confirm equal loading.

eIF5A1 [3] = assay: Indirect immunofluorescence localization of eIF5A1 in HT-29 cells; assay type: cell-based, human
Protocol: HT-29 cells were cultured on poly-L-lysine-coated glass coverslips. Subconfluent cells were incubated for 16 hours with 200 Units of interferon gamma (IFN-γ; Roche Applied Science) followed by TNF-α (100 ng/ml; Leinco Technologies) for times varying from 10 minutes to 8 hours. Alternatively, cells were treated with 1.0 μg/ml Actinomycin D for increasing lengths of time from 30 minutes to 16 hours. The treated cells were fixed with 3% formaldehyde (methanol-free; Polysciences Inc.) for 20 minutes, washed twice for 5 minutes with PBS and once for 5 minutes with PBS containing 100 mM glycine, and permeabilized with 0.2% Triton X-100 in PBS for 4 minutes. Cells were then labeled for immunofluorescence using a standard protocol. The primary antibody was anti-eIF5A (BD Transduction Laboratories; mouse IgG) incubated at a dilution of 1:250 for 1 hour. The secondary antibody was anti-mouse IgG-AlexaFluor 488 (Molecular Probes) used at a dilution of 1:200 for 1 hour. Following antibody labeling, the nuclei were stained with Hoescht 33258, and the labeled cells were observed by fluorescent microscopy.

p53 = assay: Western blot of p53 and phosphorylated p53 in A549 cells; assay type: cell-based; conditions: A549, inhibitor added 4 hours after infection (U1026 10 μM, Pifithrin-a 30 μM)
Protocol: (§1) Western blotting of lysate from A549 cells used for MAPK/SAPK pathway analysis was performed using lysate collected in MAPK lysis buffer (10 mM Tris-pH 7.4, 2% SDS, 10% glycerol). Ten micrograms of lysate was separated on 10% SDS-PAGE gels and transferred to a PVDF membrane. The membrane was blocked for one hour in 5% non-fat skim milk in PBS, washed with PBS and incubated with primary antibody at 1:1000 in 5% BSA/PBS-T overnight at 4° C. with shaking. The MAPK/SAPK antibodies (P-p38, p38, P-JNK, JNK, P-ERK, ERK, p90RSK) were purchased from Cell Signaling. The p53 antibodies used in the A549 study were also obtained from Cell Signaling and used in a similar fashion.
A549 lung carcinoma cells were infected with either an adenovirus expressing LacZ (Lac) or eIF5A1 (5A). Four hours after infection, the media was replaced with media containing either DMSO, 10 μM of the p38 inhibitor SB203580 (Calbiochem), 10 μM of the JNK inhibitor II (Calbiochem), 10 μM of the MEK inhibitor U1026 (Calbiochem), or 30 μM of the p53 inhibitor Pifithrin-a (Calbiochem). Forty-eight hours later, the cells were treated with EGF for 30 minutes and the cell lysate was harvested. Western blots were performed on the lysate using antibodies directed against either total p53 (p53), or p53 phosphorylated on serine 15 [P-p53(ser15)], or p53 phosphorylated on 37 [P-p53(ser37)].

[4] = test system: A549 lung carcinoma cells; assay: Annexin/PI apoptosis by flow cytometry, A549 cells; assay type: cell-based; conditions: A549 infected with Ad-eIF5A1; JNK inhibitor II 10 μM, U1026 10 μM, Pifithrin-a 30 μM
Protocol: A549 lung carcinoma cells were infected with either an adenovirus expressing LacZ (Lac) or eIF5A1 (5A). Four hours after infection, the media was replaced with media containing either DMSO, 10 μM of the p38 inhibitor SB203580 (Calbiochem), 10 μM of the JNK inhibitor II (Calbiochem), 10 μM of the MEK inhibitor U1026 (Calbiochem), or 30 μM of the p53 inhibitor Pifithrin-a (Calbiochem). Forty-eight hours later, the cells were harvested and the percentage of cells undergoing apoptosis was determined by Annexin/PI staining (BD Bioscience) followed by analysis by flow cytometry.

[5] = test system: MAPK/SAPK signaling pathways; assay: Western blot of MAPK/SAPK pathway activation in A549 cells; assay type: cell-based; conditions: A549 infected with Ad-eIF5A1 or Ad-eIF5A1(K50A), with MEK1 inhibitor
Protocol: as §1
HT-29 cells were infected with 3000 infectious units per cell and experiments with A549 cells were performed using 1500 infectious units per cell.

N=C(N)NCCCCCCCN [GC7, N1-guanyl-1,7-diaminoheptane]
effect on the growth of the cells (HT-29 cells): profound effect on the growth

Cc1c2oc3c(C)ccc(C(=O)N[C@@H]4C(=O)N[C@H](C(C)C)C(=O)N5CCC[C@H]5C(=O)N(C)CC(=O)N(C)[C@@H](C(C)C)C(=O)O[C@@H]4C)c3nc-2c(C(=O)N[C@@H]2C(=O)N[C@H](C(C)C)C(=O)N3CCC[C@H]3C(=O)N(C)CC(=O)N(C)[C@@H](C(C)C)C(=O)O[C@@H]2C)c(N)c1=O [Actinomycin D] (I: T[dV]P[Sar][NMeV] / II: T[dV]P[Sar][NMeV]; ester I:1-I:C, II:1-II:C; linker I:N-II:N via Actinocin(9to1))
deoxyhypusinated form of eIF5A1 (eIF5A1 [1]): increase in the presence of the deoxyhypusinated form of eIF5A1 | eIF5A1 protein expression (eIF5A1 [2]): up-regulated | time to shift of eIF5A1 from cytoplasmic to nuclear localization (eIF5A1 [3]): ≤ 90 min

Pifithrin-a
effect of inhibitor on Ad-eIF5A1-induced accumulation and phosphorylation of p53 (p53): inhibited | effect of inhibitor on apoptosis induced by eIF5A1 [4]: decreases apoptosis

O=C1c2ccccc2-c2n[nH]c3cccc1c23 [JNK inhibitor II]
effect of inhibitor on apoptosis induced by eIF5A1 [4]: increases apoptosis

N#CC(=C(/N)Sc1ccccc1N)/C(C#N)=C(/N)Sc1ccccc1N [U1026]
activation of JNK [5]: inhibited the activation of JNK | p38 activation [5]: increased p38 activation | effect of inhibitor on Ad-eIF5A1-induced accumulation and phosphorylation of p53 (p53): inhibited | effect of inhibitor on apoptosis induced by eIF5A1 [4]: increases apoptosis
